Test results taken from US11369695B2, “Fat droplets in retina and optic nerve as a diagnostic marker for neurodegeneration and glaucoma in humans” (The Jackson Laboratory, priority 2016, dated 2022).
“Also recorded” adds a separate entry of the source.

What was measured:
mice = test: PQQ tolerability in mice; assay type: in vivo, mouse
Procedure: With regard to PQQ, it is tolerated at least at 2,000 mg/kg/day in mice. The neuroprotective effect provided by PQQ is about 20-2,000 mg/kg/day, about 100-1,000 mg/kg/day, or about 500 mg/kg/day in mice.

DBA/2J (D2) mice [1] = details: cited from earlier work
DBA/2J (D2) mice [2] = details: cited from earlier work; remark: listed apart in the source
DBA/2J (D2) mice [3] = test: Intraocular pressure (IOP) in D2 mice; assay type: in vivo, mouse; details: NAM in drinking water (data not shown)
Text: Following the onset of iris disease around 6 months of age, intraocular pressure began to increase (FIG. 2). A typical “normal” IOP in a D2 mouse eye is ˜13 mmHg, which increases progressively from 6 to 12 months, to values that can typically exceed 20 mmHg. By 9 months of age, IOP was/had been elevated in the majority of the eyes of the D2 mice. IOP increases in D2 eyes were age-related and asynchronous, as well as being highly variable. In our colony, females tend to have higher/early onsets of elevated IOP (FIG. 2). […] Importantly, NAM was protective both prophylactically (starting at 6-month, early start; prior to IOP elevation in the vast majority of eyes in the colony), and as an intervention (starting at 9-month, late start; when the majority of eyes have had continuing IOP elevation). This signifies that NAM is able to both prevent neuronal injury from occurring as well as limiting neuronal injury to already insulted neurons (FIG. 6). This is important for human disease where treatment would only start once a disease has become symptomatic and thus detectable.

NAD levels = NAD levels in NAM-treated D2 mice; assay type: in vivo, mouse; details: NAM 550 mg/kg/d in drinking water
[4] = tested on: lipid droplets in DBA/2J retinas; test: Lipid droplet formation in the inner retina by Oil Red O staining; assay type: in vivo, mouse; details: 12 month of age DBA/2J mice, versus untreated
Procedure: Lipid droplet formation in the inner retina was assessed by Oil Red O staining, which brightly stained neutral triglycerides and lipids. Following intraocular pressure elevation, lipid droplets were present within the inner retina of DBA/2J mice. At 6 months of age, the majority of retinas were negative for lipid droplets. By 9 months of age, small and dispersed lipid droplets were present in some eyes. By 12 months of age, lipid accumulation was present in the majority of eyes in retinas that had not yet developed glaucoma (no glaucoma). In eyes that had developed severe glaucoma, lipid droplets were present across the retina in the majority of eyes. GCL=ganglion cell layer (retinal ganglion cell bodies), IPL=inner plexiform layer (retinal ganglion cell dendrites and synapses). Haematoxylin (dark blue/purple) is a general marker of cell nuclei used as a counter-stain.
Lipid droplet formation was assessed in retinas from nicotinamide-treated DBA/2J mice. […] GCL=ganglion cell layer (retinal ganglion cell bodies), IPL=inner plexiform layer (retinal ganglion cell dendrites and synapses). Haematoxylin (dark blue/purple) is a general marker of cell nuclei used as a counter-stain.
Again, lipid/fat droplet formation in the inner retina was assessed by Oil Red O staining. […]
Lipid droplet formation was assessed in retinas from nicotinamide-treated DBA/2J mice.

DBA/2J (D2) mice [5] = test: Glaucomatous neurodegeneration in D2 mice at 12 months (optic nerve damage grading, soma loss, visual function, axonal transport); assay type: in vivo, mouse; details: for protection from developing glaucoma / optic nerve degeneration: NAM 550 mg/kg/d in drinking water, assessed at 12 months
Procedure: From left, DBA/2J control—D2 mice on standard drinking water; Nicotinamide)(NAM^Lo) early start—D2 mice on standard drinking water supplemented with 550 mg/kg/day NAM from 6 months of age (pre-disease); Nicotinamide)(NAM^Lo) late start—D2 mice on standard drinking water supplemented with 550 mg/kg/day NAM from 9 months of age (during disease); Nicotinamide (NAM^Hi) early start—D2 mice on standard drinking water supplemented with 2,000 mg/kg/day NAM from 6 months of age (pre-disease); Pyruvate—D2 mice on standard drinking water supplemented with 500 mg/kg/day pyruvate from 6 months of age (pre-elevated IOP); NAM^Lo+Pyruvate—D2 mice on standard drinking water supplemented with 550 mg/kg/day NAM+500 mg/kg/day pyruvate from 6 months of age (pre-disease); D2.Wld^S—D2 mice carrying the Wld^S transgene (altered NMNAT enzyme that enhances enzymatic activity) on standard drinking water; D2.Wld^S+Nicotinamide)(NAM^Lo)—D2 mice carrying the Wld^S transgene (altered NMNAT enzyme) on standard drinking water with 550 mg/kg/day NAM from 6 months of age (pre-elevated IOP).
To determine the fate of the retinal ganglion cells following prolonged period of elevated IOP in the D2 mice, we used PPD staining of the optic nerve to reveal the extent of retinal and/or optic nerve neurodegeneration, as PPD darkly stains the axoplasm of dead/dying axons.
For this purpose, we distinguished optic nerves as having one of three levels of damage: no glaucoma, where there is <5% axon loss in the optic nerve, these nerves are indistinguishable from young controls; moderate glaucoma, with […], and evidence of darkly stained axons; or severe glaucoma, with >50% axon loss, and typically accompanied by gliosis/gliotic scarring.
We conducted this in vivo experiment using a large cohort of D2 mice. In this experiment, optic nerves were classified into three damage levels: NO (no glaucoma), MOD (moderate damage), and SEV (severe damage).
Experimental D2 mice were divided into the following groups and were given:
W=water (standard mouse water)
NAM or NAM^Lo=550 mg/kg/d NAM in drinking water
Early=early start=pre-glaucoma=6-month of age (i.e. prophylactic)
Late=late start=during glaucoma=9-month of age (when mice already have high IOP, i.e. interventional, and more relative to human glaucoma)
Mice were then assessed at 12-month for optic nerve damage, soma loss, visual function, and axonal transport (data not shown).

retinal ganglion cells = test: Retinal ganglion cell analyses in NAM-treated D2 mice (data not shown); assay type: in vivo, mouse
Text: In addition, many ocular and neurodegenerative diseases occur in the elderly due to age-dependent molecular chances that increase susceptibility to damage. […] Furthermore, axonal degeneration and somal shrinkage may represent common components in some neurodegenerative diseases. NAM prevents these changes based on the data above at least in glaucoma treatment.

O=C(O)c1cc(C(=O)O)c2c(n1)C(=O)C(=O)c1cc(C(=O)O)[nH]c1-2 [PQQ, Pyrroloquinoline Quinone]
tolerated dose (mice): ≥ 2,000 mg/kg/day

CC(C)OC(=O)CCC/C=C\C[C@@H]1[C@@H](CC[C@@H](O)CCc2ccccc2)[C@H](O)C[C@@H]1O [Latanoprost]
risk of developing neurodegeneration after topical administration (DBA/2J (D2) mice [1]): reduces the risk of developing neurodegeneration
IOP after topical administration (DBA/2J (D2) mice [2]): lowers IOP

NC(=O)c1cccnc1 [NAM, nicotinamide]
effect on IOP (DBA/2J (D2) mice [3]): did not alter IOP
decline of NAD levels (NAD levels): prevent the decline of NAD levels
lipid droplet accumulation in retinas [4]: completely prevented
protection from developing glaucoma / optic nerve degeneration (DBA/2J (D2) mice [5]): protect the D2 mice from all detectable signs of glaucoma through 12 months; also recorded: robustly protected D2 mice from developing glaucoma
protection from developing glaucoma / optic nerve degeneration (DBA/2J (D2) mice [5]; listed as nicotinamide): protects against optic nerve degeneration
glaucoma in the majority of the treated eyes, including PERG (DBA/2J (D2) mice [5]; NAM administration): completely prevents glaucoma
protection from glaucoma, prophylactic (DBA/2J (D2) mice [5]; NAM early start at 6-month, prior to IOP elevation): protects against glaucomatous neurodegeneration prophylactically; also recorded: protective
protection from glaucoma, as an intervention (DBA/2J (D2) mice [5]; NAM late start at 9-month, continuing IOP elevation): protective
early synapse loss (retinal ganglion cells; data not shown): protects early synapse loss
formation of dysfunctional mitochondria with abnormal cristae (retinal ganglion cells; data not shown): inhibits the formation of dysfunctional mitochondria with abnormal cristae
retinal ganglion cell dysfunction and degeneration (retinal ganglion cells; data not shown): robustly prevent retinal ganglion cell dysfunction and degeneration
age-related gene expression / molecular changes in RGCs (retinal ganglion cells; gene expression, data not shown): prevents age-related gene expression In RGCs; also recorded: prevents age-related molecular changes
axonal degeneration and somal shrinkage (retinal ganglion cells; glaucoma): prevents axonal degeneration and somal shrinkage
PARP activation (retinal ganglion cells; immunostaining, data not shown): decreases PARP activation
molecular signs of glaucoma (retinal ganglion cells; immunostaining, data not shown): prevents molecular signs of glaucoma

CC(C)(C)NC[C@H](O)COc1nsnc1N1CCOCC1 [timolol]
risk of developing neurodegeneration after topical administration (DBA/2J (D2) mice [1]): reduces the risk of developing neurodegeneration
IOP after topical administration (DBA/2J (D2) mice [2]): lowers IOP

CC12CC3CC(C)(C1)CC(N)(C3)C2 [memantine]
risk of developing neurodegeneration after topical administration (DBA/2J (D2) mice [1]): reduces the risk of developing neurodegeneration
IOP after topical administration (DBA/2J (D2) mice [2]): lowers IOP
